From patent publication US20260183275A1, “SUBSTITUTED QUINOLONE COMPOUNDS USEFUL AS INHIBITORS OF TLR9” (Bristol-Myers Squibb Company, priority 2022, published 2026) come the findings set out here.

Holding throughout (assay type): cell-based
One assay addresses T1, human TLR7 (Homo sapiens, UniProt Q9NYK1).
T1 construct: host or cells: HEK-Blue cells
T1 sequence (Q9NYK1 27-1049): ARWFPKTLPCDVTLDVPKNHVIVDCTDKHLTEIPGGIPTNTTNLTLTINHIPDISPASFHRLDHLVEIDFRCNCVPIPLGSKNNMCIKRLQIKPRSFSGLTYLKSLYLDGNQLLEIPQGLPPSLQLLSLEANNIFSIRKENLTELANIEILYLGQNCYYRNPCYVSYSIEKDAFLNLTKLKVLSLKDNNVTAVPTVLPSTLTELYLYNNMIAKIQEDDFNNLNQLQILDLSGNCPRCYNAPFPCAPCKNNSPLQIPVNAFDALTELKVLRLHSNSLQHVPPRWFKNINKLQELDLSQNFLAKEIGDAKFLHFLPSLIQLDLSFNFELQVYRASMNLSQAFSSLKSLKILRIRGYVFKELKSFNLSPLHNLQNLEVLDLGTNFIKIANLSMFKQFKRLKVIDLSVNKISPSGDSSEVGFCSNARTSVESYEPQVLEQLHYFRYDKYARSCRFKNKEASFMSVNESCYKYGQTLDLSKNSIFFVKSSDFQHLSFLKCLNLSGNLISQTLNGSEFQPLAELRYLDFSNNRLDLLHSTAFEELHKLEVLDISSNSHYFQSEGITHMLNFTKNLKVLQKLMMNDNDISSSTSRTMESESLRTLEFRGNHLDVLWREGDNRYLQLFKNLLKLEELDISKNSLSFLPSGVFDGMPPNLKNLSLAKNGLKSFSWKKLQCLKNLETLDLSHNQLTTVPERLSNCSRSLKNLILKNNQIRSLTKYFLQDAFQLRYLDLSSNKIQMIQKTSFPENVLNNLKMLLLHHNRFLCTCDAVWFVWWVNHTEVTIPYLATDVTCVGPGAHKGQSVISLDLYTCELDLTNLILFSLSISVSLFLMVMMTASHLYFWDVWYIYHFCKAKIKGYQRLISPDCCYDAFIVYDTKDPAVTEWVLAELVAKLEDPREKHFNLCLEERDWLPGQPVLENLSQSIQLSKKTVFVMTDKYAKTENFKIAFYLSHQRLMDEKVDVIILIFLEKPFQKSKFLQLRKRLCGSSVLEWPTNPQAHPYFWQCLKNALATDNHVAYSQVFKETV
As to the kind of experiment: TLR7 inhibition reporter assay (HEK-Blue cells, SEAP reporter). The following applies: HEK-Blue cells overexpressing human TLR7; stimulated with gardiquimod 7.5 μM; SEAP read after 22 hour; dose range 0.05 nM-50 μM. The gist of the method:
(§1)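 HEK-Blue cells with NF-κB/AP-1-driven SEAP pre-treated 30 min with compounds (0.05 nM-50 μM), then stimulated with gardiquimod 7.5 μM (TLR7), R848 15.9 μM (TLR8) or ODN2006 5 nM (TLR9). SEAP read after 22 h at 37° C; % inhibition relative to agonist+DMSO and reference-inhibitor wells.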

The target in the next assay is T2, human TLR8 (Homo sapiens, UniProt Q9NR97).
T2 construct: host or cells: HEK-Blue cells
T2 sequence (Q9NR97 27-1041): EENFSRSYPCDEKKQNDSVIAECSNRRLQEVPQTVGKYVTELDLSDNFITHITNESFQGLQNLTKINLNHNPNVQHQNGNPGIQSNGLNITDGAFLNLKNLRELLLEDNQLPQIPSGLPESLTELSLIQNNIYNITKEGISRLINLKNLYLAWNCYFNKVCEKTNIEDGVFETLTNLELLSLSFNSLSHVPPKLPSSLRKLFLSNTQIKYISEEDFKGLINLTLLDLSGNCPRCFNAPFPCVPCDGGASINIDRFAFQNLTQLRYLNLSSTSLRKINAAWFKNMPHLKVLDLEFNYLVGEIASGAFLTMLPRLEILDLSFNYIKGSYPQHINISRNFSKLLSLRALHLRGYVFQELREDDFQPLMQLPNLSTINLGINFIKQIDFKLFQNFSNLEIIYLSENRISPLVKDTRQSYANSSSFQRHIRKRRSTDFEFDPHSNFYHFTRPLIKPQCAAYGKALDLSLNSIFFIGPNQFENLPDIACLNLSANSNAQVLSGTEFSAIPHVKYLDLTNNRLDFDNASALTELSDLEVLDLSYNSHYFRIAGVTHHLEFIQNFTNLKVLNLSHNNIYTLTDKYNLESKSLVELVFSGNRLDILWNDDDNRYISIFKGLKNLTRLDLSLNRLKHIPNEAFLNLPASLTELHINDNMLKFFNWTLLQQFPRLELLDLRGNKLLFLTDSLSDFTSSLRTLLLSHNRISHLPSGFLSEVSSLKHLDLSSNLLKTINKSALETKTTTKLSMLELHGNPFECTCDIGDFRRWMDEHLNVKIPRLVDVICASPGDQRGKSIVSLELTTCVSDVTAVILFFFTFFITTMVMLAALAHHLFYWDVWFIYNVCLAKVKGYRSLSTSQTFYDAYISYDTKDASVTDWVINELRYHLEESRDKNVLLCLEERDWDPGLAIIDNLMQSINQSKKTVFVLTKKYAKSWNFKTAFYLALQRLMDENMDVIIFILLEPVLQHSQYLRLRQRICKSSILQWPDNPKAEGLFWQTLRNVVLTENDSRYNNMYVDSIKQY
As to the kind of experiment: TLR8 inhibition reporter assay (HEK-Blue cells, SEAP reporter). The following applies: HEK-Blue cells overexpressing human TLR8; stimulated with R848 15.9 μM; SEAP read after 22 hour; dose range 0.05 nM-50 μM. The procedure, abridged:
as §1
On the technique in general: Reporter assays use an easily measured gene product as a stand-in for the process of interest.

A further assay has as its target T3, human TLR9 (Homo sapiens, UniProt Q9NR96).
T3 construct: host or cells: HEK-Blue cells
T3 sequence (Q9NR96 26-1032): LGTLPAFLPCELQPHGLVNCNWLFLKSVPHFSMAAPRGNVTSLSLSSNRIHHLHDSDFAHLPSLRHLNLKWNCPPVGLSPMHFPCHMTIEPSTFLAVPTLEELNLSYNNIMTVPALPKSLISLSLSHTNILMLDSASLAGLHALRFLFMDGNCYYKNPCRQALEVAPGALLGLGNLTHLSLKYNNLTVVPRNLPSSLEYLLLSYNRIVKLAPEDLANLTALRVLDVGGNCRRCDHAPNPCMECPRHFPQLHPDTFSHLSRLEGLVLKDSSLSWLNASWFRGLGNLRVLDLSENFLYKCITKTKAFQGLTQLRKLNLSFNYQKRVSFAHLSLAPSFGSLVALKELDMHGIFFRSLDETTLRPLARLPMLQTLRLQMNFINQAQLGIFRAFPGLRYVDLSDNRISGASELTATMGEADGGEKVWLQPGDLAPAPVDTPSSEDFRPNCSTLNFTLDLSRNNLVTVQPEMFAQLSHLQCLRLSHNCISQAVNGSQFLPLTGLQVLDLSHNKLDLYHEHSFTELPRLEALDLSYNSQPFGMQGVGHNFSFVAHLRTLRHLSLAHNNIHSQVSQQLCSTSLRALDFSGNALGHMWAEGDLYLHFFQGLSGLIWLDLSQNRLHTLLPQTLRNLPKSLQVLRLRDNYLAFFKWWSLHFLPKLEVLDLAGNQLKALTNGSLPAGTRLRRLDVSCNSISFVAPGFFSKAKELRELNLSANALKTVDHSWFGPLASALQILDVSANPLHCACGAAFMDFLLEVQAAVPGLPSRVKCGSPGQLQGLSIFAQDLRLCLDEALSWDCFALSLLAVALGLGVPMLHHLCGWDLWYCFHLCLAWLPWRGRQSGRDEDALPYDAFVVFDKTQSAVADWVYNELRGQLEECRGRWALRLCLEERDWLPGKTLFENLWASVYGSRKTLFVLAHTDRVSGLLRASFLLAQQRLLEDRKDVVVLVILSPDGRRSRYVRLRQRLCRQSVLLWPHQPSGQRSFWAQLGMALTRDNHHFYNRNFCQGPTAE
As to the kind of experiment: TLR9 inhibition reporter assay (HEK-Blue cells, SEAP reporter). The following applies: HEK-Blue cells overexpressing human TLR9; stimulated with ODN2006 5 nM; SEAP read after 22 hour; dose range 0.05 nM-50 μM. The gist of the method:
as §1

By IC50 is commonly meant the concentration that inhibits the measured activity by half. Read a high IC50 as weaker potency.

`CC(C)N1CCC(c2ccc(-c3ccc4c(c3)cc(-c3ccc(S(C)(=O)=O)cc3)c(=O)n4CCCO)cc2)CC1` [Example 82, 1-(3-hydroxypropyl)-3-(4-methanesulfonylphenyl)-6-{4-[1-(propan-2-yl)piperidin-4-yl]phenyl}-1,2-dihydroquinolin-2-one]: the IC50 stood at 5500 nM against human TLR7, 19100 nM against human TLR8 and 312 nM against human TLR9.
Regarding `CC(C)N1CCN(c2ccc(-c3ccc4[nH]c(=O)c(-c5ccncc5)cc4c3)cc2)CC1` [Example 17, 6-{4-[4-(propan-2-yl)piperazin-1-yl]phenyl}-3-(pyridin-4-yl)-1,2-dihydroquinolin-2-one], the values for the IC50 against human TLR7, against human TLR8 and at human TLR9 were 338 nM, 949 nM and 171 nM, respectively.
On to `CC(C)N1CCN(c2ccc(-c3ccc4c(c3)cc(-c3ccc(NC(=O)c5ccccn5)cc3)c(=O)n4C)cc2)CC1` [Example 50, N-[4-(1-methyl-2-oxo-6-{4-[4-(propan-2-yl)piperazin-1-yl]phenyl}-1,2-dihydroquinolin-3-yl)phenyl]pyridine-2-carboxamide], for which the IC50 is 15600 nM against human TLR7, at least 50000 nM on human TLR8 and 242 nM on human TLR9.
As for `CC(C)Cn1c(=O)c(-c2ccc(S(C)(=O)=O)cc2)cc2cc(-c3ccc(C4CCN(C(C)C)CC4)cc3)ccc21` [Example 85, 3-(4-methanesulfonylphenyl)-1-(2-methylpropyl)-6-{4-[1-(propan-2-yl)piperidin-4-yl]phenyl}-1,2-dihydroquinolin-2-one], the IC50 against human TLR7 was found to be 14600 nM; on human TLR8, 26300 nM; at human TLR9, 400 nM.
Turning to `CC(C)N1CCN(c2ccc(-c3ccc4[nH]c(=O)c(-c5ccc(Cl)cc5Cl)cc4c3)cc2)CC1` [Example 38, 3-(2,4-dichlorophenyl)-6-{4-[4-(propan-2-yl)piperazin-1-yl]phenyl}-1,2-dihydroquinolin-2-one], the IC50 is 8880 nM on human TLR7, at least 50000 nM against human TLR8 and 376 nM against human TLR9.
For `CC(C)N1CCN(c2ccc(-c3ccc4[nH]c(=O)c(-c5ccccc5)cc4c3)cc2)CC1` [Example 18, 3-phenyl-6-{4-[4-(propan-2-yl)piperazin-1-yl]phenyl}-1,2-dihydroquinolin-2-one], the IC50 against human TLR7 worked out at 16700 nM; against human TLR8 it was 16300 nM; against human TLR9, 190 nM.
On to `CC(C)N1CCN(c2ccc(-c3ccc4[nH]c(=O)c(-c5ccc(Cl)cc5)cc4c3)cc2)CC1` [Example 39, 3-(4-chlorophenyl)-6-{4-[4-(propan-2-yl)piperazin-1-yl]phenyl}-1,2-dihydroquinolin-2-one], for which the values for the IC50 against human TLR7, against human TLR8 and on human TLR9 were at least 50000 nM, at least 50000 nM and 387 nM, respectively.
In the case of `CC(=O)Nc1ccc(-c2cc3cc(-c4ccc(N5CCN(C(C)C)CC5)cc4)ccc3n(C)c2=O)cc1` [Example 57, N-[4-(1-methyl-2-oxo-6-{4-[4-(propan-2-yl)piperazin-1-yl]phenyl}-1,2-dihydroquinolin-3-yl)phenyl]acetamide], the IC50 was 1220 nM at human TLR7, 83 nM at human TLR8 and 615 nM at human TLR9.
On to `CC(C)N1CCN(c2ccc(-c3ccc4[nH]c(=O)c(-c5cccc(NS(C)(=O)=O)c5)cc4c3)cc2)CC1` [Example 8, N-[3-(2-oxo-6-{4-[4-(propan-2-yl)piperazin-1-yl]phenyl}-1,2-dihydroquinolin-3-yl)phenyl]methanesulfonamide], for which the IC50 against human TLR7 worked out at 299 nM; against human TLR8 it was 1820 nM; at human TLR9, 87 nM.
Consider `CCc1c(-c2ccc(S(C)(=O)=O)cc2)c(=O)n(C)c2ccc(-c3ccc(C4CCN(C(C)C)CC4)cc3)cc12` [Example 86, 4-ethyl-3-(4-methanesulfonylphenyl)-1-methyl-6-{4-[1-(propan-2-yl)piperidin-4-yl]phenyl}-1,2-dihydroquinolin-2-one], for which the figures for the IC50 on human TLR7, against human TLR8 and against human TLR9 were 10400 nM, 1550 nM and 406 nM, respectively.
For `CC(=O)Nc1ccc(-c2cc3cc(-c4ccc(C5CCN(C(C)C)CC5)cc4)ccc3[nH]c2=O)cc1` [Example 81, N-[4-(2-oxo-6-{4-[1-(propan-2-yl)piperidin-4-yl]phenyl}-1,2-dihydroquinolin-3-yl)phenyl]acetamide], the figures for the IC50 on human TLR7, on human TLR8 and at human TLR9 were 333 nM, 796 nM and 309 nM, respectively.
`CC(C)N1CCN(c2ccc(-c3ccc4[nH]c(=O)c(-c5c(F)cc(F)cc5F)cc4c3)cc2)CC1` [Example 41, 6-{4-[4-(propan-2-yl)piperazin-1-yl]phenyl}-3-(2,4,6-trifluorophenyl)-1,2-dihydroquinolin-2-one]: the results for the IC50 against human TLR7, against human TLR8 and on human TLR9 were 4770 nM, at least 50000 nM and 411 nM, respectively.
